Test results as given in US8859530B2, “Co-administration of steroids and zoledronic acid to prevent and treat osteoarthritis” (Voltarra Pharmaceuticals, Inc., priority 2013, dated 2014).

Columns and labels:
[1] = tested on: arthritis pain; details: cited from earlier work
[2] = tested on: patients with osteoporosis; test: Zoledronic Acid alone or with prednisone (ZP), single infusion in osteoporosis patients: post-dosing syndrome; format: in vivo, human; details: four patients per arm
Experimental: Eight patients with osteoporosis were treated with a single infusion of Zoledronic Acid alone (four patients) or with a single infusion of the combination of prednisone and Zoledronic Acid (ZP, four patients).

[3] = in vivo; cited from earlier work
[4] = tested on: subjects with osteoarthritis; test: Joint pain (VAS scale) in the osteoarthritis subjects of the first study; format: in vivo, human; details: six months after the single infusion (one ZP subject up to one year); three ZP, two Zoledronic Acid subjects with osteoarthritis
Experimental: Of the 8 subjects, five had osteoarthritis. Of these five, three were treated with ZP and two with Zoledronic Acid.

[5] = tested on: patients; details: Zometa Prescribing Information; cited from earlier work
[6] = tested on: subjects with knee osteoarthritis; test: Single blind, single center study of intravenous ZP or ZA in knee osteoarthritis; format: in vivo, human
Experimental: In a further study, this one, a single blind, single center study, 20 subjects with knee osteoarthritis were randomized to either intravenous ZP or ZA in a 1:1 ratio. Subjects were followed for six months. Efficacy was measured by change in pain in 100 mm visual analogue score (VAS) from baseline (mean values). Patients were asked about the level of pain without taking rescue medications (NSAIDS or tramadol). Bone mineral density (BMD) was determined at baseline and six months to detect any effect on bone.

Structure (SMILES)	effect on arthritis pain ([1]; IV, by itself)	duration of effect ([1]; in vivo)	patients suffering from post-dosing syndrome (PDS) [2]	half-life (t1/2α) [3]	change in joint pain (VAS scale) [4]	patients affected by post-dosing syndrome (PDS) [5]	ΔBMD ([6]; bone mineral density, baseline versus six months)	Δ Mean VAS ([6]; change in pain in 100 mm visual analogue score from baseline (mean values), six months follow-up, without rescue medications)	PDS (# reporting/total) ([6]; intravenous, 10 subjects per cohort, knee osteoarthritis)
C[C@]12C=CC(=O)C=C1CC[C@@H]1[C@@H]2[C@@H](O)C[C@@]2(C)[C@H]1CC[C@]2(O)C(=O)CO [Prednisolone]	no effect on arthritis pain	transient, less than a day	–	–	–	–	–	–	–
O=P(O)(O)C(O)(Cn1ccnc1)P(=O)(O)O [Zoledronic Acid]	–	–	All four	about 0.24 hours	same (one) or worse (one) level of pain	≤ 44%	0	−10 mm	6/10
